Entries after “also recorded” stand apart in the source; their conditions may differ.
Columns and labels:
mTRPV3 = biological target: T1, mTRPV3 (Mus musculus, UniProt Q8K424); assay: Whole-cell patch clamp of 2-APB induced current in mTRPV3-HEK-293 cells; assay type: cell-based
T1 construct: expressed in transfected cells
T1 sequence (Q8K424 1-791): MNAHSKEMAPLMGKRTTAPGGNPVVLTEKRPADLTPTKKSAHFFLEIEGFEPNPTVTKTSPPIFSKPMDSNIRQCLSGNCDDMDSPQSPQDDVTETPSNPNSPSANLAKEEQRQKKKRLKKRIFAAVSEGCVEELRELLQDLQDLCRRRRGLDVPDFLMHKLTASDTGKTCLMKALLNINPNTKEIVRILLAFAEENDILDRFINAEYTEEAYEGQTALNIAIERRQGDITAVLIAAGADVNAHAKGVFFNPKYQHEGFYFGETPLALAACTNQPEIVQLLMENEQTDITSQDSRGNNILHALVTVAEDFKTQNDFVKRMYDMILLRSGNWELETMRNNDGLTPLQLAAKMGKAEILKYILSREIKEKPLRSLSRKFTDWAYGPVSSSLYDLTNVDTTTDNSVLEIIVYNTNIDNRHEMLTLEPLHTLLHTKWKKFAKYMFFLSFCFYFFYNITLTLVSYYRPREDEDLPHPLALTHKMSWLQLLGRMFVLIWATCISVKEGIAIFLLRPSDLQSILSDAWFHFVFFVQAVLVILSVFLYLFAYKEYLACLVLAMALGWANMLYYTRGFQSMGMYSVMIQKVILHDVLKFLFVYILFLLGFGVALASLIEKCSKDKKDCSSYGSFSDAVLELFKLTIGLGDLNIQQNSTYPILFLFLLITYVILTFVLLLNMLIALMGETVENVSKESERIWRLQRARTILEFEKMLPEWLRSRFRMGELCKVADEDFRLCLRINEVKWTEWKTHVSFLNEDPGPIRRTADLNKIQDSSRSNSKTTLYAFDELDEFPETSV
Description: mTRPV3 plasmids were donated by Professor Jie Zheng from UC Davis. Transfection steps were as follows: HEK-293 cells with a confluence ranging from 70% to 80% and a good growth state were seeded into T-60 small dishes the day before transfection, each small dish contained 4×10^5 cells, and the cells were cultured without penicillin/streptomycin overnight at 37° C. in 5% CO2. 10 μL of plasmids (plasmid concentration was 1000 ng/μL) were diluted with 250 μl of DMEM (article number: 12800017, Gibco), and meanwhile, 10 μL of Lipofectamine 2000 (article number: 11668027, Gibco) was diluted into 250 μL of DMEM. […] Monoclone cells were selected by a limiting dilution method: the screened cells were digested and counted, and seeded into a 96-well plate in sequence at densities of 10^4 cells/well, 10^3 cells/well, 10^2 cells/well, 10 cells/well, and 1 cell/well. Under a fluorescence microscope, wells of separate cells with green fluorescence were labeled, and cells amplified from the wells were HEK-293 cells stably transfecting the mTRPV3. […] HEK-293 cells stably transecting mTRPV3 (mTRPV3-HEK-293) were seeded into T-60 small dishes with a confluence ranging from 20% to 30%, and whole cell current was recorded by a patch clamp amplification system next day. […]

[1] = test system: mouse psoriasis model induced by 5% IMQ; assay: Neutrophil infiltration (Ly6G+ cells, immunofluorescence) of mouse psoriasis model; assay type: in vivo; conditions: 5% IMQ model

IC50 (mTRPV3; whole-cell patch clamp, mTRPV3-HEK-293, 2-APB 100 μM, nonlinear fitting): 1.01 µM
Structure (SMILES): O=c1cc(-c2ccc(O)cc2)oc2cc(O)c(O)c(O)c12 [Scutellarein]
inhibition of whole-cell current induced by 2-APB (mTRPV3; Scutellarein 0.3-30 μM, 2-APB 100 μM, mTRPV3-HEK-293): could inhibit the whole-cell current induced by the 2-APB and had a dose dependence; also recorded: obvious inhibitory effect
neutrophil infiltration [1]: obviously reduce

Reference: patent publication US11304926B2, “Application of transient receptor potential cation channel TRPV3 in developing drug for preventing or treating psoriasis” (CHINA PHARMACEUTICAL UNIVERSITY, priority 2019, dated 2022)
